From PubChem BioAssay (NCI)
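All cell lines were grown in 96-well plates and treated with compound for 48 hours. GI50: concentration for 50% inhibition of growth. The concentration for full growth arrest is given as TGI.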

Tests used:
Experiment in all cases: growth of human tumour cells (NCI), 48 h
NCI-H522 lung = system: NCI-H522 lung
TK-10 renal = system: TK-10 renal
OVCAR-4 ovarian = system: OVCAR-4 ovarian
U251 CNS = system: U251 CNS
SK-MEL-28 melanoma = system: SK-MEL-28 melanoma
IGROV1 ovarian = system: IGROV1 ovarian
EKVX NSCLC = system: EKVX NSCLC
NCI-H23 lung = system: NCI-H23 lung
SF-295 CNS = system: SF-295 CNS
SNB-75 CNS = system: SNB-75 CNS

## COc1cccc(NC(=O)c2ccc(NC3=C(Cl)C(=O)N(Cc4ccccc4)C3=O)cc2)c1
NCI-H522 lung
  GI50: 2.49 µM
  TGI: 8.87 µM
TK-10 renal
  GI50: 20.3 µM
  TGI: 55 µM
OVCAR-4 ovarian
  GI50: 22 µM
  TGI: > 100 µM
U251 CNS
  GI50: 7.12 µM
  TGI: 19.9 µM
SK-MEL-28 melanoma
  GI50: 11.5 µM
  TGI: 28 µM
IGROV1 ovarian
  GI50: 13.3 µM
  TGI: 28.7 µM
EKVX NSCLC
  GI50: 24.4 µM
  TGI: 49.4 µM
NCI-H23 lung
  GI50: 15.3 µM
  TGI: 28.6 µM
SF-295 CNS
  GI50: 10.5 µM
  TGI: 28.8 µM

## COC(=O)[C@H](Cc1cn(C)cn1)NC(=O)[C@@H](NC(=O)Nc1cc(C(F)(F)F)cc(C(F)(F)F)c1)C(C)(C)C
TK-10 renal
  GI50: > 10 µM
  TGI: > 10 µM
OVCAR-4 ovarian
  GI50: > 10 µM
  TGI: > 10 µM
SNB-75 CNS
  GI50: > 10 µM
  TGI: > 10 µM
U251 CNS
  GI50: > 10 µM
  TGI: > 10 µM
SK-MEL-28 melanoma
  GI50: > 10 µM
  TGI: > 10 µM
IGROV1 ovarian
  GI50: > 10 µM
  TGI: > 10 µM
NCI-H23 lung
  GI50: > 10 µM
  TGI: > 10 µM
SF-295 CNS
  GI50: > 10 µM
  TGI: > 10 µM

## CC1=CC2=C(C#N)C(=O)OC2(C)C(c2ccccc2)C1 (configuration not stated)
NCI-H522 lung
  TGI: > 100 µM
TK-10 renal
  TGI: > 100 µM
OVCAR-4 ovarian
  TGI: > 100 µM
SNB-75 CNS
  TGI: > 100 µM
U251 CNS
  TGI: > 100 µM
SK-MEL-28 melanoma
  TGI: > 100 µM
IGROV1 ovarian
  TGI: > 100 µM
EKVX NSCLC
  TGI: > 100 µM
SF-295 CNS
  TGI: > 100 µM

## N#Cc1ccc(NC(=O)Nc2nc3ccc(OC(F)(F)F)cc3s2)cc1
NCI-H522 lung
  GI50: 0.427 µM
  TGI: 3.09 µM
TK-10 renal
  GI50: 1.22 µM
  TGI: 7.03 µM
OVCAR-4 ovarian
  GI50: 1.64 µM
  TGI: 44 µM
SNB-75 CNS
  GI50: 1.84 µM
  TGI: 7.19 µM
U251 CNS
  GI50: 1.43 µM
  TGI: 11.4 µM
SK-MEL-28 melanoma
  GI50: 2.31 µM
  TGI: 12.3 µM
IGROV1 ovarian
  GI50: 2 µM
  TGI: 16.1 µM
EKVX NSCLC
  GI50: 1.36 µM
  TGI: 14.7 µM
NCI-H23 lung
  GI50: 0.581 µM
  TGI: 6.02 µM
SF-295 CNS
  GI50: 1.18 µM
  TGI: 4.22 µM

## S=C1SCN(C2CCCCCCCCCCC2)CN1C1CCCCCCCCCCC1
NCI-H522 lung
  TGI: > 100 µM
TK-10 renal
  TGI: > 100 µM
OVCAR-4 ovarian
  TGI: > 100 µM
SNB-75 CNS
  TGI: > 100 µM
U251 CNS
  TGI: > 100 µM
SK-MEL-28 melanoma
  TGI: > 100 µM
IGROV1 ovarian
  TGI: > 100 µM
EKVX NSCLC
  TGI: > 100 µM
NCI-H23 lung
  TGI: > 100 µM
SF-295 CNS
  TGI: > 100 µM

## Cc1ccccc1C[P+](c1ccccc1)(c1ccccc1)c1ccccc1
NCI-H522 lung
  GI50: 0.78 µM
  TGI: 5.73 µM
TK-10 renal
  GI50: 1.2 µM
  TGI: 30.2 µM
OVCAR-4 ovarian
  GI50: 0.64 µM
  TGI: 9.39 µM
SNB-75 CNS
  GI50: 1.21 µM
  TGI: 16.2 µM
U251 CNS
  GI50: 1.35 µM
  TGI: > 100 µM
SK-MEL-28 melanoma
  GI50: 2.1 µM
  TGI: 44 µM
IGROV1 ovarian
  GI50: 2.42 µM
  TGI: > 100 µM
EKVX NSCLC
  GI50: 0.873 µM
  TGI: > 100 µM
NCI-H23 lung
  GI50: 1.97 µM
  TGI: > 100 µM
SF-295 CNS
  GI50: 2.34 µM
  TGI: > 100 µM

## COc1cc(/C=C2\Cc3ccccc3C2=O)cc(OC)c1OC
NCI-H522 lung
  TGI: > 100 µM
TK-10 renal
  TGI: > 100 µM
OVCAR-4 ovarian
  TGI: > 100 µM
SNB-75 CNS
  TGI: > 100 µM
U251 CNS
  TGI: > 100 µM
SK-MEL-28 melanoma
  TGI: > 100 µM
EKVX NSCLC
  TGI: > 100 µM
NCI-H23 lung
  TGI: > 100 µM
SF-295 CNS
  TGI: > 100 µM

## C/C(=N\NS(=O)(=O)c1c(C)cc(C)cc1C)c1ccc[n+]([O-])n1
NCI-H522 lung
  TGI: 21 µM
OVCAR-4 ovarian
  TGI: 44.6 µM
SNB-75 CNS
  TGI: 41.2 µM
U251 CNS
  TGI: > 100 µM
SK-MEL-28 melanoma
  TGI: 27.6 µM
IGROV1 ovarian
  TGI: 99.2 µM
EKVX NSCLC
  TGI: 26 µM
NCI-H23 lung
  TGI: 34 µM
SF-295 CNS
  TGI: > 100 µM

## C=C1C(=O)O[C@H]2[C@H]1CC/C(Cn1cc(-c3ccsc3)nn1)=C\CC[C@@]1(C)O[C@@H]21
NCI-H522 lung
  GI50: 1.39 µM
  TGI: 3.17 µM
TK-10 renal
  GI50: 1.52 µM
  TGI: 3.16 µM
OVCAR-4 ovarian
  GI50: 2.48 µM
  TGI: 7.61 µM
SNB-75 CNS
  GI50: 3.23 µM
  TGI: 18.2 µM
U251 CNS
  GI50: 2.5 µM
  TGI: 8 µM
SK-MEL-28 melanoma
  GI50: 1.81 µM
  TGI: 4.02 µM
IGROV1 ovarian
  GI50: 1.92 µM
  TGI: 5.03 µM
EKVX NSCLC
  GI50: 2.33 µM
  TGI: 7.76 µM
NCI-H23 lung
  GI50: 1.82 µM
  TGI: 4 µM
SF-295 CNS
  GI50: 9.61 µM
  TGI: 21.5 µM

## Clc1nc(-c2ccccc2)nc(Cl)c1Cl
NCI-H522 lung
  TGI: 9.95 µM
TK-10 renal
  TGI: 42.6 µM
OVCAR-4 ovarian
  TGI: 38.9 µM
SNB-75 CNS
  TGI: 29.1 µM
U251 CNS
  TGI: 21.5 µM
SK-MEL-28 melanoma
  TGI: 31.6 µM
IGROV1 ovarian
  TGI: 21.6 µM
EKVX NSCLC
  TGI: 31.5 µM
NCI-H23 lung
  TGI: 32.6 µM
SF-295 CNS
  TGI: 31.5 µM

## Fc1ccc2c(c1)cc1ccc3cccc4ccc2c1c34
NCI-H522 lung
  TGI: > 100 µM
TK-10 renal
  TGI: > 100 µM
OVCAR-4 ovarian
  TGI: > 100 µM
SNB-75 CNS
  TGI: > 100 µM
U251 CNS
  TGI: > 100 µM
SK-MEL-28 melanoma
  TGI: > 100 µM
IGROV1 ovarian
  TGI: > 100 µM
EKVX NSCLC
  TGI: > 100 µM
NCI-H23 lung
  TGI: > 100 µM
SF-295 CNS
  TGI: > 100 µM

## COc1ccc(NS(=O)(=O)c2ccc(N=C3C=C(Nc4ccc(S(=O)(=O)Nc5ccc(OC)nn5)cc4)C(=O)c4ccccc43)cc2)nn1
NCI-H522 lung
  TGI: 31.8 µM
TK-10 renal
  TGI: 40 µM
OVCAR-4 ovarian
  TGI: 50.4 µM
SNB-75 CNS
  TGI: 35.1 µM
U251 CNS
  TGI: 33.2 µM
SK-MEL-28 melanoma
  TGI: 31.4 µM
IGROV1 ovarian
  TGI: 45.7 µM
EKVX NSCLC
  TGI: 63.1 µM
NCI-H23 lung
  TGI: 29.7 µM
SF-295 CNS
  TGI: 32.1 µM

## COc1ccc2c(c1OC)C(C=C(c1ccccc1)c1ccccc1)CN(C)C2 (configuration not stated)
NCI-H522 lung
  TGI: 41.5 µM
TK-10 renal
  TGI: 76.1 µM
OVCAR-4 ovarian
  TGI: > 100 µM
SNB-75 CNS
  TGI: > 100 µM
U251 CNS
  TGI: 57.3 µM
SK-MEL-28 melanoma
  TGI: 57.9 µM
IGROV1 ovarian
  TGI: 43.5 µM
EKVX NSCLC
  TGI: > 100 µM
NCI-H23 lung
  TGI: 63.1 µM
SF-295 CNS
  TGI: 80.3 µM

## O=C(COC(=O)c1cccc2c(=O)c3ccccc3[nH]c12)Nc1ccc(S(=O)(=O)Nc2ncccn2)cc1
NCI-H522 lung
  TGI: 58.2 µM
TK-10 renal
  TGI: > 100 µM
OVCAR-4 ovarian
  TGI: > 100 µM
SNB-75 CNS
  TGI: 92.7 µM
U251 CNS
  TGI: 56.3 µM
SK-MEL-28 melanoma
  TGI: > 100 µM
IGROV1 ovarian
  TGI: > 100 µM
EKVX NSCLC
  TGI: > 100 µM
NCI-H23 lung
  TGI: > 100 µM
SF-295 CNS
  TGI: > 100 µM

## CN=C(N)NC
NCI-H522 lung
  TGI: > 100 µM
TK-10 renal
  TGI: > 100 µM
OVCAR-4 ovarian
  TGI: > 100 µM
SNB-75 CNS
  TGI: > 100 µM
U251 CNS
  TGI: > 100 µM
SK-MEL-28 melanoma
  TGI: > 100 µM
IGROV1 ovarian
  TGI: > 100 µM
EKVX NSCLC
  TGI: > 100 µM
NCI-H23 lung
  TGI: > 100 µM
SF-295 CNS
  TGI: > 100 µM

## O=C(CC1SC(=Nc2ccccc2Cl)NC1=O)Nc1ccc(Cl)cc1 (configuration not stated)
TK-10 renal
  TGI: > 100 µM
OVCAR-4 ovarian
  TGI: > 100 µM
U251 CNS
  TGI: > 100 µM
SK-MEL-28 melanoma
  TGI: > 100 µM
IGROV1 ovarian
  TGI: > 100 µM
EKVX NSCLC
  TGI: > 100 µM
NCI-H23 lung
  TGI: > 100 µM
SF-295 CNS
  TGI: > 100 µM

## CCOC(=O)c1csc(-c2nc(CCNC(=O)c3ccccc3)sc2Cl)n1
TK-10 renal
  TGI: > 100 µM
SNB-75 CNS
  TGI: > 100 µM
U251 CNS
  TGI: > 100 µM
SK-MEL-28 melanoma
  TGI: > 100 µM
IGROV1 ovarian
  TGI: > 100 µM
EKVX NSCLC
  TGI: > 100 µM
NCI-H23 lung
  TGI: > 100 µM
SF-295 CNS
  TGI: > 100 µM
